Results reported in patent publication US20060188903A1, “Implantation serine proteinases” (priority 2001, published 2006).

Key:
[1] = tested on: ISP2 mRNA; test: Uterine ISP2 gene expression by in situ hybridization in hormone- or RU486-treated mice; assay type: in vivo, mouse; settings: for induction of ISP2 gene expression: after ovariectomy without progesterone maintenance, up to 14 days; for maintenance of ISP2 gene expression: delayed implantation after ovariectomy
Experimental: All surgical procedures were carried out after the mice were anaesthetized with an i.p. injection of Avertin (2% (w/v) tribromoethanol; Aldrich Chemical Co. Milwaukee, Wis.). Ovariectomy was performed by dorsal-lateral incision (Hogan et al., 1994). Ovariectomized mice were allowed at least 1 wk for recovery before the induction of deciduomas. All steroid hormones including RU486 were dissolved in sesame oil and injected s.c. At each stage of the experiment, control mice were used which received only oil (0.1 ml/mouse) injections. The standard regimen for artificial induction of deciduomas (Finn, 1966) was modified to more closely mimic pseudo-pregnancy (Milligan, 1995). Here, the first progesterone treatment was started […] after exposure to oestrogen. This modified regimen consisted of 100 ng oestrogen daily starting on Day 0, and 1 mg progesterone plus 10 ng oestrogen from day three onward. Deciduomas were induced surgically on Day 5 (between 1400-1600 h) by injecting sesame oil (10 μl) into the lumen of one uterine horn from its oviductal tip. Injected and uninjected horns were collected 24, 48 or 72 hours later for histological sectioning and in situ hybridization analysis.
Delayed implantation was induced and maintained by ovariectomising mice on day 3 of pregnancy, followed by administration of progesterone (2 mg/mouse) on days 4 to 6. Subsequently, half these mice were treated with estrogen (25 ng/mouse) on the morning of the seventh day, while the other half received the normal progesterone injection. Mice were sacrificed 24 hours later for analysis by in situ hybridization.
The effect of steroids on uterine development in the absence of blastocysts was examined by ovariectomizing mice and treating them with hormone injections after a two week recovery period. They received injections of either progesterone (1 mg/mouse), estrogen (100 ng/mouse), or a combination of both (10 ng estrogen and 1 mg progesterone/mouse) for three days. Mice were then sacrificed on the morning of the fourth day. To further determine the importance of progesterone on ISP2 gene expression superovulated pregnant and pseudo-pregnant mice (Hogan et al., 1994) were treated with RU486 (400 μg/mouse) on the morning of the third day after a vaginal plug was detected. The mice were then sacrificed 24 hours later and their uterine horns were collected for in situ hybridization analysis.
Whole embryo RNA in situ hybridization using digoxigenin-labelled RNA probes was performed essentially as previously described (Rancourt and Rancourt, 1997). The ISP1 probe comprised the 478 bp RT-PCR subclone in pBSKS^+. The ISP2 probe also comprised a 478 by RT-PCR subclone in pBSKS^+. The antisense probes were synthesized using T3 polymerase after plasmid linearization with EcoRI. […]

[2] = tested on: strypsin; test: Histochemical staining of strypsin activity in blastocysts; assay type: cell-based, mouse; settings: 24 hours of treatment
Experimental: Whole embryo RNA in situ hybridization using digoxigenin-labelled RNA probes was performed essentially as previously described (Rancourt and Rancourt, 1997). The ISP1 probe comprised the 478 bp RT-PCR subclone in pBSKS^+. The ISP2 probe also comprised a 478 by RT-PCR subclone in pBSKS^+. The antisense probes were synthesized using T3 polymerase after plasmid linearization with EcoRI. The sense probes were synthesized using T7 polymerase after plasmid linearization with BamHI. All experiments were performed with the sense RNA probe in parallel to detect non-specific hybridization. Histochemical staining of strypsin activity was performed essentially as outlined previously (Perona and Wassarman, 1986). Embryos were collected as early blastocysts in M2 medium, and were lightly fixed in 1.25% (w/v) glutaraldehyde in 0.25M sucrose, 50 mM sodium phosphate (pH7.5) for five min at 4° C. Following fixation, the blastocysts were placed in 50 mM sodium phosphate (pH7.5) containing the substrate N-α-benzoyl-DL-arginine β-napthylamide (0.56 mM; Sigma) and Fast Garnet GBC salt (1.86 mM; Sigma), were incubated for 5 min at room temperature and washed in 50 mM sodium phosphate (pH7.5).
(§1) In antisense oligodeoxynucleotide studies, harvested blastocysts were placed in 0.001% (v/v) L-a-lysophosphatidylcholine for 60 seconds (Jones et al., 1997) and were transferred to microdrops equilibrated with 2.5 μM, 5 μM oligodeoxynucleotide or an equal volume of H2O (Behrendtsen et al., 1995). Two antisense oligodeoxynucleotides were designed against regions surrounding ISP1's initiation codon: AS1 (5′-[…]-3′; SEQ ID NO;13) situated upstream, AS2 (5′-[…]-3′; SEQ ID NO:14) lying downstream. A control oligodeoxynucleotide, SS1 (5′-[…]-3′; SEQ ID NO:15), represented the scrambled sense sequence surrounding the initiation codon. […] Blastocysts were scored at 20, 30, 40, and 60 hours for progress in hatching. […] Progress in outgrowth was monitored over a period of 5 days.

[3] = tested on: Mouse Blastocysts; test: In vitro blastocyst hatching after oligodeoxynucleotide administration; assay type: cell-based; settings: for Percent Hatched over Time: 100 blastocysts; for effect on blastocyst hatching (in words): scored at 20, 30, 40 and 60 hours
Experimental: (§2) Morulae were collected from oviducts of superovulated, 2.5 day pregnant dams in M2 medium (Hogan et al., 1994). For hatching, morulae were cultured in microwells for approximately 24 hrs at 37° C., 5% CO2 in KSOMaa medium (Erbach et al., 1994). In embryo outgrowth, hatched blastocysts were cultured for an additional 48 hrs at 37° C., 5% CO2 in Dulbecco's Modified Eagle's Medium plus 5% (v/v) fetal bovine serum on microwells coated with extracellular matrix derived from 10% (v/v) Triton X-100-treated mouse embryo fibroblasts (Behrendtsen et al., 1995).
In antisense oligodeoxynucleotide studies, harvested blastocysts were placed in 0.001% (v/v) L-a-lysophosphatidylcholine for 60 seconds (Jones et al., 1997) and were transferred to microdrops equilibrated with 2.5 μM, 5 μM oligodeoxynucleotide or an equal volume of H2O (Behrendtsen et al., 1995). Two antisense oligodeoxynucleotides were designed against regions surrounding ISP1's initiation codon: AS1 (5′-[…]-3′; SEQ ID NO;13) situated upstream, AS2 (5′-[…]-3′; SEQ ID NO:14) lying downstream. A control oligodeoxynucleotide, SS1 (5′-[…]-3′; SEQ ID NO:15), represented the scrambled sense sequence surrounding the initiation codon. The oligodeoxynucleotides were designed using Oligo™ software and were synthesized and purified by Dr. Richard Pon, UC DNA Services (University of Calgary). Blastocysts were scored at 20, 30, 40, and 60 hours for progress in hatching. […] Following eight hours of treatment, some blastocysts were assayed for the presence of ISP1 transcripts using RT-PCR. Following 24 hours of treatment, some blastocysts were assayed for strypsin activity using histochemical staining. In outgrowth studies, blastocysts were allowed to hatch and then transferred to microdrops equilibrated with oligodeoxynucleotide or water. Progress in outgrowth was monitored over a period of 5 days.
A possible role for ISP1 in hatching was examined by determining whether ISP1 mRNA could be reduced in blastocysts by treatment with antisense oligodeoxynucleotides (Behrendtsen et al., 1995; Jones et al., 1997) and result in an alteration of the hatching process. Two antisense oligodeoxynucleotides were designed surrounding ISP1's initiation codon covering the region immediately upstream (AS1) and downstream (AS2). A control oligodeoxynucleotide (SS1) represented the scrambled sense sequence surrounding the initiation codon. Blastocysts were scored at 20, 30, 40, and 60 hours for progress in hatching.

[4] = tested on: ISP1 transcripts; test: RT-PCR of ISP1 transcripts in oligodeoxynucleotide-treated blastocysts; assay type: cell-based, mouse; settings: after eight hours of culture
Experimental: The presence of ISP1 transcripts in embryos and placentas was monitored using RT-PCR. Total RNA (1 μg) was reverse transcribed and amplified using ISP1 specific primers (ISP1 for 5′-[…]-3′; SEQ ID NO:9 and ISP1rev 5′-GTCAAAGATGGCCACAGC-3+: SEQ ID NO: 10) and forty rounds of thermal cycling (1 min at 94° C., 2 min at 60° C., and 2 min at 72° C.). The RT-PCR amplification of GAPDH (as a control for mRNA loading) is described elsewhere (Arcellana-Panlilio and Schultz, 1993). The predicted 175 and 380 bp amplification products were separated on a 2% (w/v) agarose gel.
as §1

[5] = tested on: hatched blastocysts; test: Blastocyst outgrowth on extracellular matrix after hatching; assay type: cell-based, mouse; settings: prehatched blastocysts in culture with oligodeoxynucleotide
Experimental: as §2, §1

Molecule | induction of ISP2 gene expression [1] | maintenance of ISP2 gene expression [1] | strypsin activity at the abembryonic pole (histochemical) [2] | strypsin activity at the abembryonic pole (histochemical) ([2]; listed as antisense oligodeoxynucleotide) | Percent Hatched over Time ([3]; 2.5 µM, 20 hours) [%] | Percent Hatched over Time ([3]; 2.5 µM, 30 hours) [%] | Percent Hatched over Time ([3]; 2.5 µM, 40 hours) [%] | Percent Hatched over Time ([3]; 2.5 µM, 60 hours) [%] | Percent Hatched over Time ([3]; 5.0 µM, 20 hours) [%] | Percent Hatched over Time ([3]; 5.0 µM, 30 hours) [%] | Percent Hatched over Time ([3]; 5.0 µM, 40 hours) [%] | Percent Hatched over Time ([3]; 5.0 µM, 60 hours) [%] | effect on blastocyst hatching (in words) [3] | reduction of accumulation of ISP1 transcripts [4] | time to adhere to extracellular matrix [5] [days] | ISP1 transcript levels (in words) ([4]; versus untreated controls)
CC(=O)[C@H]1CC[C@H]2[C@@H]3CCC4=CC(=O)CC[C@]4(C)[C@H]3CC[C@]12C [progesterone] | could be induced | normal ISP2 expression was observed |  |  |  |  |  |  |  |  |  |  |  |  |  | 
AS1: antisense oligodeoxynucleotide upstream of ISP1's initiation codon, 5′-TCTAACTACCGTCTAACAACG-3′; SEQ ID NO:13 (DNA, backbone and methylation of C not given here) |  |  | reduced strypsin activity | strypsin activity was absent | 0 | 0 | 16 | 37 | 10 | 10 | 20 | 20 | interfered specifically with blastocyst hatching | at least 100 fold | 5 | 
AS2: antisense oligodeoxynucleotide downstream of ISP1's initiation codon, 5′-GAACTCTTCTAACTACCGTCT-3′; SEQ ID NO:14 (DNA, backbone and methylation of C not given here) |  |  |  |  | 0 | 20 | 35 | 40 | 0 | 5 | 35 | 45 | interfered specifically with blastocyst hatching |  |  | 
SS1: control oligodeoxynucleotide, scrambled sense sequence surrounding the ISP1 initiation codon, 5′-ACGGTAGTTAGAAGAGTTCT-3′; SEQ ID NO:15 (DNA, backbone and methylation of C not given here) [reference compound] |  |  | localized strypsin activity was observed |  | 10 | 16 | 58 | 90 | 10 | 39 | 61 | 77 |  |  | 2 | significant reduction was not observed
estrogen | did not have a stimulatory effect | not observed |  |  |  |  |  |  |  |  |  |  |  |  |  | 
